Measurements: patent US5164367A, “Method of using copper(II) containing compounds to accelerate wound healing” (ProCyte Corporation, priority 1990, dated 1992)

Columns and labels:
[1] = system: wound chambers in rats (granulation tissue formation); assay: Wound chamber model in rats, compounds injected directly into the wound chambers;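 also: compounds given as 0.2 ml injections into encapsulated wound chambers in rats on set days, chambers removed at day 15 or 29, contents measured per chamber versus saline-injected chambers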
[2] = system: wound chambers in healing impaired rats (granulation tissue formation); assay: Wound chamber model in cortisone acetate treated (healing impaired) rats, I.M. injection; type: in vivo
Method: (§1) The chambers were removed at day 15 and 29.
(§2) After implantation of the chambers, the rats were subsequently injected with Cortisone Acetate (10 mg I.M. daily, Cortone Acetate, Merck) to impair the healing response. After allowing for encapsulation of the chambers, the rats were injected I.M. (in the opposite leg from the cortisone injection) with 0.1 ml of either a saline solution containing 10 mg/ml of glycyl-L-histidyl-L-lysine:copper(II) (2:1 molar ratio) or saline.
as §2, with “containing 19” for “containing 10”, “of glycyl-L-histidyl-L-lysyl-valyl-phenylalanly-valine:copper(II)” for “of glycyl-L-histidyl-L-lysine:copper(II) (2:1 molar ratio)”
as §2, with “the copper(II) compounds listed at the dosage specified in Table 4,” for “either a saline solution containing 10 mg/ml of glycyl-L-histidyl-L-lysine:copper(II) (2:1 molar ratio)”

[3] = system: wound chambers in normal rats (granulation tissue formation); assay: Subcutaneous stainless steel wound chamber model, I.M. injection, normal rats; type: in vivo
Text: The subcutaneous implantation of stainless steel wound chambers in rats provides a model for the healing of open cavity wounds. This model in many ways mimics the early events in the formation of granulation tissue found in many types of wounds and surgical defects. Implantation of these chambers triggers a series of responses which reflect the series of phases involved in wound healing--fibrin clot formation, infiltration of white cells, collagen synthesis, and new blood vessel formation.
as §1
After allowing for encapsulation of the chambers, the rats were injected I.M. with 0.1 ml of either a saline solution containing 10 mg/ml glycyl-L-histidyl-L-lysine:copper(II) (2:1 molar ratio) or saline.

[4] = system: 15 mm full-thickness excision wound in mice; assay: Full thickness defect model in mice, I.M. injection; type: in vivo
Text: Following an acclimation period, mice are anesthetized with I.P. pentobarbital and prepped for surgery. The hair is plucked from a wide area of the mid-back. An ink stamp bearing a 15 mm diameter circle is used to mark the skin for subsequent full-thickness excision. Tissue is excised to the fascia underlying the paniculus carnosus muscle. Following excision, hemostasis is achieved through irrigation and the use of sterile gauze pads.
Mice received a first I.M. treatment of GHL-Cu following hemostasis, Day 0. Injections consisted of 0.1 mg of GHL-Cu in a volume of 0.1 ml. Mice used as controls received injections of saline. Injections were repeated on days 1, 2, 3, 6, 7, 8, 9, 10, and 13.
The residual wound surface area is measured on days 1, 7, 10 and 14. The final comparison is performed on Day 14. Table 5 below illustrates that I.M. injection of GHL-Cu resulted is an approximately 75% smaller residual wound size at 14 days.

[5] = system: 2.0x2.0 cm full thickness skin defects in pigs; assay: Full thickness skin defects in pigs, I.M. injection, punch biopsy analysis; type: in vivo, domestic pigs; details: pig
Method: The systemic application of GHL-Cu increases the formation of granulation tissue in pigs. Two domestic pigs approximately 29-31 pounds, about 8 weeks old, were anesthetized with Ketamine (30 mg/Kg) and Rompum (5 mg/Kg). A series of full thickness skin defects measuring 2.0×2.0 cm were created on the backs of each pig and bandaged with gauze and adhesive tape. One pig was treated with I.M. injections of strerile saline and the other with a solution of GHL-Cu (30 mg/ml). Each pig received 1.0 ml injections of either the saline or GHL-Cu solution on days 0, 1, 2, 5, 6, 7, 8, 9, 12, and 13.
Punch biopsy samples were taken from the centers of the healing wounds on day 7 and day 12 and analyzed for the biochemical parameters of granulation tissue and described in Example 10.

[6] = Table 8 part A, 2.0 mg/injection, saline control 4.5 ± 1.0
[7] = Table 8 part A, 2.0 mg/injection, saline control 49 ± 9
[8] = Table 8 part A, 2.0 mg/injection, saline control 75 ± 11
[9] = Table 8 part A, 2.0 mg/injection, saline control 703 ± 244
[10] = healing impaired (cortisone) rats, 0.3 mg/injection, saline control 502 ± 145
[11] = cortisone treated rats, 0.1 ml of 10 mg/ml

glycylL-histidyl-L-lysine octyl amide:copper(II) [GHL-Octyl Amide:Cu]
ANGIOGENESIS ([1]; Table 7 part A, 2.6 mg/injection, saline control 5.3 ± 3.6): 6.7 ± 1.3 Units AP/chamber | PROTEIN ([1]; Table 7 part A, 2.6 mg/injection, saline control 47 ± 20): 47 ± 6 mg/chamber | WET WEIGHT ([1]; Table 7 part A, 2.6 mg/injection, saline control 85 ± 30): 101 ± 8 mg | COLLAGEN ([1]; Table 7 part A, 2.6 mg/injection, saline control 335 ± 132): 1339 ± 265 μg HP/chamber

glycylL-(3-methyl)histidyl-L-lysine:copper(II) [G(3-Me)HL:Cu]
ANGIOGENESIS [1, 6]: 8.9 ± 5.5 Units AP/chamber | PROTEIN [1, 7]: 75 ± 9 mg/chamber | WET WEIGHT [1, 8]: 125 ± 15 mg | COLLAGEN [1, 9]: 1996 ± 288 μg HP/chamber

glycyl-L-histidyl-L-lysyl-L-valyl-L-phenylalanyl-L-valine:copper(II) [GHLVFV:Cu]
ANGIOGENESIS ([2]; cortisone treated rats, 1.9 mg/injection, saline control 1.9 ± 0.4): 6.9 ± 6.1 Units AP/chamber | PROTEIN ([2]; cortisone treated rats, 1.9 mg/injection, saline control 32 ± 4): 45 ± 15 mg/chamber | DRY WEIGHT ([2]; cortisone treated rats, 1.9 mg/injection, saline control 65 ± 8): 84 ± 28 mg | COLLAGEN ([2]; cortisone treated rats, 1.9 mg/injection, saline control 502 ± 145): 1279 ± 1001 μg HP/chamber | level of all the biochemical parameters examined ([2]; cortisone treated rats, 0.1 ml of 19 mg/ml): increased

alanylL-histidyl-L-lysine:copper(II) [AHL:Cu]
ANGIOGENESIS [1, 6]: 10.2 ± 6.5 Units AP/chamber | PROTEIN [1, 7]: 46 ± 14 mg/chamber | WET WEIGHT [1, 8]: 74 ± 22 mg | COLLAGEN [1, 9]: 1565 ± 520 μg HP/chamber

lysylL-histidyl-glycyl-L-valyl-L-phenylalanyl-L-valine:copper(II) [LHGVFV:Cu]
ANGIOGENESIS ([1]; Table 8 part B, 3.8 mg/injection, saline control 5.3 ± 3.6): 8.0 ± 1.3 Units AP/chamber | PROTEIN ([1]; Table 8 part B, 3.8 mg/injection, saline control 47 ± 20): 37 ± 9 mg/chamber | WET WEIGHT ([1]; Table 8 part B, 3.8 mg/injection, saline control 85 ± 30): 95 ± 18 mg | COLLAGEN ([1]; Table 8 part B, 3.8 mg/injection, saline control 335 ± 132): 1630 ± 275 μg HP/chamber

histidylglycyl-L-lysine:copper(II) [HGL:Cu]
ANGIOGENESIS [1, 6]: 10.4 ± 3.9 Units AP/chamber | PROTEIN [1, 7]: 58 ± 9 mg/chamber | WET WEIGHT [1, 8]: 104 ± 13 mg | COLLAGEN [1, 9]: 2025 ± 456 μg HP/chamber

carnosine:copper(II) [CARN:Cu]
COLLAGEN [2, 10]: 832 ± 174 μg HP/chamber

citrate:copper(II) [CITRATE:Cu]
COLLAGEN ([2]; healing impaired (cortisone) rats, 0.5 mg/injection, saline control 502 ± 145): 976 ± 343 μg HP/chamber

glycylglycyl-glycine:copper(II) [GGG:Cu]
COLLAGEN [2, 10]: 829 ± 210 μg HP/chamber

glycylL-histidyl-L-lysyl-L-tryptophan:copper(II) [GHLW:Cu]
ANGIOGENESIS ([1]; Table 7 part A, 3.1 mg/injection, saline control 5.3 ± 3.6): 7.7 ± 1.6 Units AP/chamber | WET WEIGHT ([1]; Table 7 part A, 3.1 mg/injection, saline control 85 ± 30): 94 ± 14 mg | COLLAGEN ([1]; Table 7 part A, 3.1 mg/injection, saline control 335 ± 132): 1508 ± 128 μg HP/chamber

glycyl-L-histidyl-L-lysine:copper(II) [GHL:Cu]
ANGIOGENESIS ([3]; 1.0 mg/injection, saline control 2.2 ± 1.1): 3.0 ± 1.5 Units AP/chamber | PROTEIN ([3]; 1.0 mg/injection, saline control 36 ± 13): 55 ± 19 mg/chamber | DRY WEIGHT ([3]; 1.0 mg/injection, saline control 51 ± 15): 75 ± 25 mg | COLLAGEN ([3]; 1.0 mg/injection, saline control 376 ± 86): 1273 ± 711 μg HP/chamber | biochemical healing parameters (vs saline) ([3]; 0.1 ml of 10 mg/ml): significantly increased | healing response in healing impaired animals relative to normal animals [2, 11]: increased the healing response in the healing impaired animals to the level found in the normal animals | level of all the biochemical parameters examined compared to control animals [2, 11]: increased | ANGIOGENESIS ([2]; healing impaired (cortisone) rats, 1.0 mg/injection, saline control 0.5 ± 0.3): 1.5 ± 1.6 Units AP/chamber | PROTEIN ([2]; healing impaired (cortisone) rats, 1.0 mg/injection, saline control 11 ± 8): 25 ± 9 mg/chamber | DRY WEIGHT ([2]; healing impaired (cortisone) rats, 1.0 mg/injection, saline control 20 ± 12): 35 ± 13 mg | COLLAGEN ([2]; healing impaired (cortisone) rats, 1.0 mg/injection, saline control 187 ± 101): 366 ± 74 μg HP/chamber | RESIDUAL WOUND SURFACE AREA DAY 14 ([4]; 0.1 mg in 0.1 ml per injection, saline control 1.78 ± 2.56): 0.42 ± 0.60 SQ MM | smaller residual wound size at 14 days vs saline ([4]; 0.1 mg per injection, day 14): approximately 75% | WET WEIGHT ([5]; 30 mg/injection, punch biopsies (day 7 and day 12), saline control 121 ± 7): 148 ± 11 mg | ANGIOGENESIS ([5]; 30 mg/injection, punch biopsies, saline control 0.4 ± 0.1): 2.2 ± 1.2 Units AP/chamber | COLLAGEN ([5]; 30 mg/injection, punch biopsies, saline control 628 ± 182): 855 ± 20 μg HP/chamber | visual examination of granulation tissue level ([5]; 30 mg/injection, saline treated animal: level below the skin): raised above the level of the surrounding skin | weight, collagen content, and angiogenesis in the biopsies ([5]; 1.0 ml of 30 mg/ml per injection): significant increase

glycylL-histidyl-L-lysine octyl ester:copper(II) [GHL-Octyl Ester:Cu]
ANGIOGENESIS ([1]; Table 7 part B, 2.6 mg/injection, saline control 4.5 ± 1.0): 12.4 ± 3.6 Units AP/chamber | PROTEIN ([1]; Table 7 part B, 2.6 mg/injection, saline control 49 ± 9): 66 ± 8 mg/chamber | WET WEIGHT ([1]; Table 7 part B, 2.6 mg/injection, saline control 75 ± 11): 106 ± 8 mg | COLLAGEN ([1]; Table 7 part B, 2.6 mg/injection, saline control 703 ± 244): 1918 ± 565 μg HP/chamber

O=S(=O)([O-])[O-].[Cu+2] [CuSO4, cupric sulfate]
COLLAGEN ([2]; healing impaired (cortisone) rats, 0.2 mg/injection, saline control 502 ± 145): 976 ± 343 μg HP/chamber

glycylL-histidyl-caprolactam:copper(II) [GHCap:Cu]
ANGIOGENESIS [1, 6]: 10.7 ± 3.1 Units AP/chamber | PROTEIN [1, 7]: 60 ± 11 mg/chamber | WET WEIGHT [1, 8]: 98 ± 13 mg | COLLAGEN [1, 9]: 1699 ± 365 μg HP/chamber
